Test results taken from patent US8338465B2, “Cyclic carboxylic acid rhodanine derivatives for the treatment and prevention of tuberculosis” (priority 2006, dated 2012).

What follows are molecules tested against T1, dihydrolipoamide acyltransferase (DlaT) (Mycobacterium tuberculosis, UniProt P9WIS7) (assay: DlaT inhibition (Dlat IC50); DTNB peroxidase assay with Lpd, DlaT and AhpD). Conditions: Table 1, Compounds A1 to A294; read-out: Dlat IC50 category.
T1 sequence (P9WIS7 1-553): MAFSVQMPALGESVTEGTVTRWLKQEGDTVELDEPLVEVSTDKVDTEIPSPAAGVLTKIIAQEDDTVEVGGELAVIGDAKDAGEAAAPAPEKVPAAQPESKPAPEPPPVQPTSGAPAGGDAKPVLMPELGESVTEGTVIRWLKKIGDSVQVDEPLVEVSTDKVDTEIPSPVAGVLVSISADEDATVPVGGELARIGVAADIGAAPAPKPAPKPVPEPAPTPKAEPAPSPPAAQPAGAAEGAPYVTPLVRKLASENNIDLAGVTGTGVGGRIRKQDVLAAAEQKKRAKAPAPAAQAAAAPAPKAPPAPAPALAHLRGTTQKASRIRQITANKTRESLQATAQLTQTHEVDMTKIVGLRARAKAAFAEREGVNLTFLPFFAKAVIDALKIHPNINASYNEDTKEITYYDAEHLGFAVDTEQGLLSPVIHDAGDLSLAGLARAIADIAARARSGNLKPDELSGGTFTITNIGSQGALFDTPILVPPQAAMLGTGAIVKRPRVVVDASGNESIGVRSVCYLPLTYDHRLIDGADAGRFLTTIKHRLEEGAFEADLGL
Assay type: biochemical

Compound | IC50
CC(=O)Nc1ccc(-c2ccc(C=C3SC(=S)N(c4cccc(C(=O)O)c4)C3=O)o2)cc1 [Compound A204] | < 10 µM
CC(=O)Nc1ccc(-c2ccc(C=C3SC(=S)N(c4cc(C(=O)O)ccc4F)C3=O)o2)cc1 [Compound A205] | < 10 µM
CC(=O)c1ccc(-c2ccc(C=C3SC(=S)N(c4cccc(C(=O)O)c4)C3=O)o2)cc1 [Compound A206] | < 10 µM
CC(=O)c1ccc(-c2ccc(C=C3SC(=S)N(c4cc(C(=O)O)ccc4F)C3=O)o2)cc1 [Compound A207] | < 10 µM
O=C(O)c1ccc(F)c(N2C(=O)C(=Cc3ccc(-c4ccccc4F)o3)SC2=S)c1 [Compound A208] | 11 to 40 µM
O=C(O)c1cccc(N2C(=O)C(=Cc3ccc(-c4cccc(CO)c4)o3)SC2=S)c1 [Compound A209] | < 10 µM
O=C(O)c1ccc(F)c(N2C(=O)C(=Cc3ccc(-c4cccc(CO)c4)o3)SC2=S)c1 [Compound A210] | < 10 µM
O=C(O)c1cccc(N2C(=O)C(=Cc3ccc(-c4ccc(F)cc4)o3)SC2=S)c1 [Compound A211] | < 10 µM
O=C(O)c1ccc(F)c(N2C(=O)C(=Cc3ccc(-c4ccc(F)cc4)o3)SC2=S)c1 [Compound A212] | < 10 µM
CCOc1ccc(-c2ccc(C=C3SC(=S)N(c4cccc(C(=O)O)c4)C3=O)o2)cc1 [Compound A217] | 11 to 40 µM
CCOc1ccc(-c2ccc(C=C3SC(=S)N(c4cc(C(=O)O)ccc4F)C3=O)o2)cc1 [Compound A218] | < 10 µM
O=C(O)c1cccc(N2C(=O)C(=Cc3ccc(-c4ccc(OCc5ccccc5)cc4)o3)SC2=S)c1 [Compound A219] | 11 to 40 µM
O=C(O)c1ccc(F)c(N2C(=O)C(=Cc3ccc(-c4ccc(OCc5ccccc5)cc4)o3)SC2=S)c1 [Compound A220] | 11 to 40 µM
O=C(O)c1cc(N2C(=O)C(=Cc3ccc(-c4ccccc4Cl)o3)SC2=S)cc(C(F)(F)F)c1 [Compound A221] | 11 to 40 µM
O=C(O)c1cc(N2C(=O)C(=Cc3ccc(-c4ccccc4F)o3)SC2=S)cc(C(F)(F)F)c1 [Compound A222] | < 10 µM
O=C(O)c1cc(N2C(=O)C(=Cc3ccc(-c4ccc(Cl)cc4)o3)SC2=S)cc(C(F)(F)F)c1 [Compound A223] | 11 to 40 µM
Cc1ccc(-c2ccc(C=C3SC(=S)N(c4cc(C(=O)O)cc(C(F)(F)F)c4)C3=O)o2)cc1 [Compound A224] | < 10 µM
CCc1ccc(-c2ccc(C=C3SC(=S)N(c4cc(C(=O)O)cc(C(F)(F)F)c4)C3=O)o2)cc1 [Compound A225] | 11 to 40 µM
CCCCOc1ccc(-c2ccc(C=C3SC(=S)N(c4cccc(C(=O)O)c4)C3=O)o2)cc1 [Compound A226] | > 41 µM
CCCCOc1ccc(-c2ccc(C=C3SC(=S)N(c4cc(C(=O)O)ccc4F)C3=O)o2)cc1 [Compound A227] | 11 to 40 µM
CS(=O)(=O)c1ccc(-c2ccc(C=C3SC(=S)N(c4cccc(C(=O)O)c4)C3=O)o2)cc1 [Compound A228] | < 10 µM
CS(=O)(=O)c1ccc(-c2ccc(C=C3SC(=S)N(c4cc(C(=O)O)ccc4F)C3=O)o2)cc1 [Compound A229] | 11 to 40 µM
O=C(O)c1cc(C(=O)O)cc(N2C(=O)C(=Cc3ccc(-c4ccccc4Cl)o3)SC2=S)c1 [Compound A230] | < 10 µM

Compound | IC50
O=C(O)c1cc(C(=O)O)cc(N2C(=O)C(=Cc3ccc(-c4ccccc4F)o3)SC2=S)c1 [Compound A231] | > 41 µM
O=C(O)c1cc(C(=O)O)cc(N2C(=O)C(=Cc3ccc(-c4ccc(Cl)cc4)o3)SC2=S)c1 [Compound A232] | 11 to 40 µM
CCc1ccc(-c2ccc(C=C3SC(=S)N(c4cc(C(=O)O)cc(C(=O)O)c4)C3=O)o2)cc1 [Compound A233] | < 10 µM
Cc1ccccc1-c1ccc(C=C2SC(=S)N(c3cc(C(=O)O)cc(C(F)(F)F)c3)C2=O)o1 [Compound A234] | < 10 µM
Cc1ccccc1-c1ccc(C=C2SC(=S)N(c3cc(C(=O)O)cc(C(=O)O)c3)C2=O)o1 [Compound A235] | < 10 µM
CSc1cccc(-c2ccc(C=C3SC(=S)N(c4cccc(C(=O)O)c4)C3=O)o2)c1 [Compound A236] | < 10 µM
CSc1cccc(-c2ccc(C=C3SC(=S)N(c4cc(C(=O)O)ccc4F)C3=O)o2)c1 [Compound A237] | < 10 µM
CSc1ccc(-c2ccc(C=C3SC(=S)N(c4cccc(C(=O)O)c4)C3=O)o2)cc1 [Compound A238] | < 10 µM
CSc1ccc(-c2ccc(C=C3SC(=S)N(c4cc(C(=O)O)ccc4F)C3=O)o2)cc1 [Compound A239] | < 10 µM
CC(C)Oc1ccc(-c2ccc(C=C3SC(=S)N(c4cccc(C(=O)O)c4)C3=O)o2)cc1 [Compound A240] | < 10 µM
CC(C)Oc1ccc(-c2ccc(C=C3SC(=S)N(c4cc(C(=O)O)ccc4F)C3=O)o2)cc1 [Compound A241] | < 10 µM
Cc1ccc(-c2cccc(C=C3SC(=S)N(c4cccc(C(=O)O)c4)C3=O)c2)cc1 [Compound A242] | 11 to 40 µM
Cc1ccc(-c2cccc(C=C3SC(=S)N(c4cc(C(=O)O)ccc4F)C3=O)c2)cc1 [Compound A243] | < 10 µM
O=C(O)c1cccc(N2C(=O)C(=Cc3ccc(-c4ccccc4-c4ccccc4)o3)SC2=S)c1 [Compound A244] | < 10 µM
O=C(O)c1ccc(F)c(N2C(=O)C(=Cc3ccc(-c4ccccc4-c4ccccc4)o3)SC2=S)c1 [Compound A245] | < 10 µM
Cc1ccc(-c2ccc(C=C3SC(=S)N(c4cccc(C(=O)O)c4)C3=O)cc2)cc1 [Compound A246] | < 10 µM
Cc1ccc(-c2ccc(C=C3SC(=S)N(c4cc(C(=O)O)ccc4F)C3=O)cc2)cc1 [Compound A247] | 11 to 40 µM
Cc1ccc(-c2ccc(C=C3SC(=S)N(c4cc(C(=O)O)cc(C(F)(F)F)c4)C3=O)cc2)cc1 [Compound A248] | < 10 µM
CCc1ccccc1-c1ccc(C=C2SC(=S)N(c3cccc(C(=O)O)c3)C2=O)o1 [Compound A249] | < 10 µM
CCc1ccccc1-c1ccc(C=C2SC(=S)N(c3cc(C(=O)O)ccc3F)C2=O)o1 [Compound A250] | < 10 µM
O=C(O)c1cccc(N2C(=O)C(=Cc3nc(-c4ccccc4)cs3)SC2=S)c1 [Compound A251] | 11 to 40 µM
O=C(O)c1ccc(F)c(N2C(=O)C(=Cc3nc(-c4ccccc4)cs3)SC2=S)c1 [Compound A252] | 11 to 40 µM
COc1ccc(C)cc1-c1ccc(C=C2SC(=S)N(c3cccc(C(=O)O)c3)C2=O)o1 [Compound A253] | < 10 µM

Compound | IC50
COc1ccc(C)cc1-c1ccc(C=C2SC(=S)N(c3cc(C(=O)O)ccc3F)C2=O)o1 [Compound A254] | < 10 µM
O=C(O)c1cc(N2C(=O)C(=Cc3ccc(-c4ccccc4Cl)o3)SC2=S)ccc1F [Compound A255] | 11 to 40 µM
O=C(O)c1cc(N2C(=O)C(=Cc3ccc(-c4ccccc4F)o3)SC2=S)ccc1F [Compound A256] | 11 to 40 µM
Cc1ccccc1-c1ccc(C=C2SC(=S)N(c3ccc(F)c(C(=O)O)c3)C2=O)o1 [Compound A257] | 11 to 40 µM
O=C(O)c1cc(N2C(=O)C(=Cc3ccc(-c4ccc(Cl)cc4)o3)SC2=S)ccc1F [Compound A258] | < 10 µM
O=C(O)c1cc(N2C(=O)C(=Cc3ccc(-c4ccc(F)cc4)o3)SC2=S)ccc1F [Compound A259] | 11 to 40 µM
Cc1ccc(-c2ccc(C=C3SC(=S)N(c4ccc(F)c(C(=O)O)c4)C3=O)o2)cc1 [Compound A260] | < 10 µM
CC(=O)Nc1ccc(-c2ccc(C=C3SC(=S)N(c4cc(C(=O)O)cc(C(F)(F)F)c4)C3=O)o2)cc1 [Compound A261] | < 10 µM
CC(=O)Nc1ccc(-c2ccc(C=C3SC(=S)N(c4ccc(F)c(C(=O)O)c4)C3=O)o2)cc1 [Compound A262] | 11 to 40 µM
CCCCc1ccc(-c2ccc(C=C3SC(=S)N(c4cccc(C(=O)O)c4)C3=O)o2)cc1 [Compound A263] | < 10 µM
CCCCc1ccc(-c2ccc(C=C3SC(=S)N(c4cc(C(=O)O)ccc4F)C3=O)o2)cc1 [Compound A264] | < 10 µM
CCCCc1ccc(-c2ccc(C=C3SC(=S)N(c4ccc(F)c(C(=O)O)c4)C3=O)o2)cc1 [Compound A265] | < 10 µM
CCCCc1ccc(-c2ccc(C=C3SC(=S)N(c4cc(C(=O)O)cc(C(F)(F)F)c4)C3=O)o2)cc1 [Compound A266] | < 10 µM
CS(=O)(=O)c1ccc(-c2ccc(C=C3SC(=S)N(c4cc(C(=O)O)cc(C(F)(F)F)c4)C3=O)o2)cc1 [Compound A267] | < 10 µM
CS(=O)(=O)c1ccc(-c2ccc(C=C3SC(=S)N(c4ccc(F)c(C(=O)O)c4)C3=O)o2)cc1 [Compound A268] | < 10 µM
CCCc1ccc(-c2ccc(C=C3SC(=S)N(c4cccc(C(=O)O)c4)C3=O)o2)cc1 [Compound A269] | < 10 µM
CCCc1ccc(-c2ccc(C=C3SC(=S)N(c4cc(C(=O)O)ccc4F)C3=O)o2)cc1 [Compound A270] | < 10 µM
CCCc1ccc(-c2ccc(C=C3SC(=S)N(c4ccc(F)c(C(=O)O)c4)C3=O)o2)cc1 [Compound A271] | < 10 µM
CCCc1ccc(-c2ccc(C=C3SC(=S)N(c4cc(C(=O)O)cc(C(F)(F)F)c4)C3=O)o2)cc1 [Compound A272] | 11 to 40 µM
CN(C)c1ccc(N2C(=O)C(=Cc3ccc(-c4ccccc4Cl)o3)SC2=S)cc1C(=O)O [Compound A274] | 11 to 40 µM
CN(C)c1ccc(N2C(=O)C(=Cc3ccc(-c4cccc(Cl)c4)o3)SC2=S)cc1C(=O)O [Compound A275] | 11 to 40 µM
O=C(O)c1cc(N2C(=O)C(=Cc3ccc(-c4ccccc4OCc4ccccc4)o3)SC2=S)ccc1F [Compound A279] | < 10 µM
